Measurements from article PMC10313671, “Accelerating the prediction and discovery of peptide hydrogels with human-in-the-loop” (Nature Communications, 2023).
Where a SMILES comes first, the peptide text is derived from it.

Assays:
[1] = Transmission electron microscope (negative staining) of peptide assemblies; conditions: for Morphology: TEM, negative staining with uranyl acetate, 120 kV; for morphology by TEM (in words): aqueous solution or hydrogel, negative staining
Method: We used the negative staining technique to observe the morphologies formed by peptides. A micropipette was used to load 10 μL of sample solution to a carbon-coated copper grid, and we used a piece of filter paper to remove the excess solution. After rinsing the grid with the deionized water, we used uranyl acetate to stain the sample for 1 minute and then rinsed the grid with deionized water again.

[2] = Peptide hydrogel formation, vial-inverting method; format: physicochemical; design: key to EXP / GELATION: 0: no hydrogel; 1: hydrogel; conditions: for State: ultrasonication, standing 48 h; for State / GELATION / hydrogel formation (in words): vial-inverting method; for Concentration: concentration at which the state was recorded: lowest of 30, 60, 90, 120 mM that gave a gel, 120 mM for non-gelating peptides; for GELATION: 1 = hydrogel, 0 = no hydrogel; for hydrogel formation (in words): representative hydrogels pH between 7.0 to 7.5
In short: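 Tetrapeptides dissolved in ultrapure water at 30 mM, pH brought to 6.5–8.5 with 1 N NaOH stepwise with brief ultrasonication, then left 48 h. Gel defined as self-supporting and non-flowing on vial inversion; non-gelling peptides retested at 60, 90 and 120 mM.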

[3] = 30 mM peptide in ultrapure water, pH adjusted to 6.5-8.5 with 1 N NaOH, concentration raised 30/60/90/120 mM until gelation
[4] = 120 mM peptide (highest tested) in ultrapure water, pH 6.5-8.5 (1 N NaOH), precipitate, sol, suspension = no gel
[5] = 60 mM peptide in ultrapure water, pH 6.5-8.5 (1 N NaOH), no gel at 30 mM

| Structure (SMILES) | Morphology ([1]; line of the table gives 30 mM) | State [2, 3] | Concentration [2] [µM] | GELATION ([2]; peptide concentration 30 mM) | Morphology ([1]; line of the table gives 120 mM) | State [2, 4] | GELATION ([2]; peptide concentration 120 mM) | also measured |
| --- | --- | --- | --- | --- | --- | --- | --- | --- |
| CC(C)C[C@H](N)C(=O)N[C@H](C(=O)N[C@@H](Cc1c[nH]cn1)C(=O)N[C@@H](Cc1ccccc1)C(=O)O)C(C)C [LVHF] (H-LVHF-OH) | hybrid(sphere+fibre) | gel | 30000 | 1 | – | – | – | – |
| CC(C)C[C@H](NC(=O)[C@@H](NC(=O)[C@H](CC(C)C)NC(=O)[C@@H](N)C(C)C)C(C)C)C(=O)O [VLVL] (H-VLVL-OH) | – | – | 120000 | – | sheet | gel | 1 | – |
| N[C@@H](CC(=O)O)C(=O)N[C@@H](CC(=O)O)C(=O)N[C@@H](CC(=O)O)C(=O)N[C@@H](CC(=O)O)C(=O)O [DDDD] (H-DDDD-OH) | – | – | 120000 | – | sphere | sol | 0 | – |
| N[C@@H](CO)C(=O)N[C@@H](Cc1c[nH]c2ccccc12)C(=O)N[C@@H](Cc1ccc(O)cc1)C(=O)N[C@@H](Cc1ccccc1)C(=O)O [SWYF] (H-SWYF-OH) | – | – | 120000 | – | fibre | gel | 1 | – |
| N=C(N)NCCC[C@H](NC(=O)[C@H](CCCNC(=N)N)NC(=O)[C@H](CCCNC(=N)N)NC(=O)[C@@H](N)CCCNC(=N)N)C(=O)O [RRRR] (H-RRRR-OH) | – | – | 120000 | – | aggregates | sol | 0 | morphology by TEM (in words) [1]: aggregates with different sizes |
| CSCC[C@H](N)C(=O)N[C@H](C(=O)N[C@@H](Cc1ccccc1)C(=O)N1CCC[C@H]1C(=O)O)C(C)C [MVFP] (H-MVFP-OH) | – | – | 60000 | – | – | – | – | Morphology ([1]; line of the table gives 60 mM): fibre; State [2, 5]: gel; GELATION ([2]; peptide concentration 60 mM): 1 |
| CC[C@H](C)[C@H](NC(=O)[C@@H](N)CS)C(=O)N[C@@H](Cc1ccc(O)cc1)C(=O)N[C@@H](Cc1ccccc1)C(=O)O [CIYF] (H-CIYF-OH) | – | – | 60000 | – | – | – | – | Morphology ([1]; line of the table gives 60 mM): fibre; State [2, 5]: gel; GELATION ([2]; peptide concentration 60 mM): 1 |
| CC[C@H](C)[C@H](NC(=O)[C@@H](NC(=O)[C@H](Cc1c[nH]cn1)NC(=O)[C@@H](N)CCC(N)=O)[C@@H](C)CC)C(=O)O [QHII] (H-QHII-OH) | – | – | 120000 | – | aggregates | sol | 0 | – |
| C[C@H](NC(=O)[C@@H](N)CS)C(=O)N[C@@H](Cc1ccc(O)cc1)C(=O)N[C@@H](Cc1c[nH]c2ccccc12)C(=O)O [CAYW] (H-CAYW-OH) | – | – | 120000 | – | aggregates | precipitate | 0 | – |
| C[C@H](NC(=O)[C@@H](N)Cc1ccccc1)C(=O)N[C@@H](Cc1ccccc1)C(=O)N1CCC[C@H]1C(=O)O [FAFP] (H-FAFP-OH) | – | – | 120000 | – | particle | suspension | 0 | – |
| CC(C)[C@H](NC(=O)CN)C(=O)N[C@@H](Cc1ccccc1)C(=O)N[C@@H](Cc1ccc(O)cc1)C(=O)O [GVFY] (H-GVFY-OH) | fibre | gel | 30000 | 1 | – | – | – | – |
| N[C@@H](Cc1ccccc1)C(=O)N[C@@H](CS)C(=O)N[C@@H](Cc1c[nH]c2ccccc12)C(=O)N[C@@H](Cc1c[nH]c2ccccc12)C(=O)O [FCWW] (H-FCWW-OH) | – | – | 120000 | – | aggregates | gel | 1 | – |
| CSCC[C@H](NC(=O)[C@@H](N)CCSC)C(=O)N[C@@H](CC(C)C)C(=O)N[C@@H](CC(C)C)C(=O)O [MMLL] (H-MMLL-OH) | – | – | 90000 | – | – | – | – | Morphology ([1]; line of the table gives 90 mM): sheet; State ([2]; 90 mM peptide in ultrapure water, pH 6.5-8.5 (1 N NaOH), no gel at lower concentrations): gel; GELATION ([2]; peptide concentration 90 mM): 1 |
| CC(C)C[C@H](NC(=O)[C@H](Cc1c[nH]c2ccccc12)NC(=O)[C@@H](NC(=O)[C@@H](N)CCCCN)C(C)C)C(=O)O [KVWL] (H-KVWL-OH) | – | – | 60000 | – | – | – | – | Morphology ([1]; line of the table gives 60 mM): fibre; State [2, 5]: gel; GELATION ([2]; peptide concentration 60 mM): 1 |
| CC(C)[C@H](NC(=O)[C@@H]1CCCN1)C(=O)N[C@@H](Cc1ccccc1)C(=O)N[C@@H](Cc1c[nH]c2ccccc12)C(=O)O [PVFW] (H-PVFW-OH) | – | – | 60000 | – | – | – | – | Morphology ([1]; line of the table gives 60 mM): hybrid(needle+fibre); State [2, 5]: gel; GELATION ([2]; peptide concentration 60 mM): 1 |
| NCC(=O)N[C@@H](Cc1ccccc1)C(=O)N[C@@H](Cc1ccccc1)C(=O)N[C@@H](Cc1ccc(O)cc1)C(=O)O [GFFY] (H-GFFY-OH) | sheet | gel | 30000 | 1 | – | – | – | – |
| CC[C@H](C)[C@H](N)C(=O)N[C@@H](Cc1c[nH]c2ccccc12)C(=O)N[C@H](C(=O)N[C@H](C(=O)O)[C@@H](C)CC)[C@@H](C)CC [IWII] (H-IWII-OH) | – | – | 120000 | – | aggregates | suspension | 0 | EXP ([2]; experimental gelation result of the synthesized peptide): 0 |
| CC[C@H](C)[C@H](NC(=O)[C@H](CC(C)C)NC(=O)[C@@H](NC(=O)[C@@H](N)CC(C)C)[C@@H](C)O)C(=O)O [LTLI] (H-LTLI-OH) | sheet | gel | 30000 | 1 | – | – | – | – |
| CC[C@H](C)[C@H](NC(=O)[C@@H]1CCCN1)C(=O)N[C@@H](Cc1ccccc1)C(=O)N[C@@H](Cc1ccc(O)cc1)C(=O)O [PIFY] (H-PIFY-OH) | sphere | gel | 30000 | 1 | – | – | – | – |
| CC(C)[C@H](NC(=O)[C@@H](N)Cc1ccc(O)cc1)C(=O)N[C@@H](Cc1ccccc1)C(=O)N[C@@H](C)C(=O)O [YVFA] (H-YVFA-OH) | – | – | 120000 | – | sphere | gel | 1 | – |
| CC[C@H](C)[C@H](NC(=O)[C@@H](NC(=O)[C@@H](N)Cc1c[nH]c2ccccc12)[C@@H](C)O)C(=O)N[C@@H](Cc1ccccc1)C(=O)O [WTIF] (H-WTIF-OH) | fibre | gel | 30000 | 1 | – | – | – | morphology by TEM (in words) [1]: entangled nanofibers; hydrogel formation (in words) [2]: hydrogels |
| CC[C@H](C)[C@H](N)C(=O)N[C@@H](Cc1ccccc1)C(=O)N[C@@H](Cc1ccc(O)cc1)C(=O)N[C@H](C(=O)O)[C@@H](C)O [IFYT] (H-IFYT-OH) | – | – | 60000 | – | – | – | – | Morphology ([1]; line of the table gives 60 mM): sheet; morphology by TEM (in words) [1]: interlaced nanosheets; State [2, 5]: gel; GELATION ([2]; peptide concentration 60 mM): 1; hydrogel formation (in words) [2]: hydrogels |
| CC(C)[C@H](N)C(=O)N[C@@H](Cc1ccccc1)C(=O)N[C@@H](Cc1c[nH]cn1)C(=O)N[C@@H](CC(N)=O)C(=O)O [VFHN] (H-VFHN-OH) | – | – | 120000 | – | aggregates | suspension | 0 | – |
| CC(C)C[C@H](NC(=O)[C@H](Cc1c[nH]cn1)NC(=O)[C@@H](N)Cc1ccccc1)C(=O)N[C@@H](Cc1ccccc1)C(=O)O [FHLF] (H-FHLF-OH) | sheet | gel | 30000 | 1 | – | – | – | – |
| CC(C)C[C@H](N)C(=O)N[C@H](C(=O)N[C@@H](Cc1ccccc1)C(=O)N[C@@H](Cc1ccccc1)C(=O)O)C(C)C [LVFF] | sphere | gel | 30000 | 1 | – | – | – | – |
